Source: PubChem BioAssay AID1259407 (Chemical Carcinogenesis Research Information System (CCRIS), 2018)
Activity calls are given as the source filed them. No rule for the calls is given here. Where a SMILES comes first, the peptide text is derived from it.

System: CCRIS mutagenicity, Ames/micronucleus/aberration tests
Assay: CCRIS mutagenicity studies
[1] = Test System: AMES SALMONELLA TYPHIMURIUM, Strain/Indicator: TA98, Metabolic Activation: NONE, Method: STANDARD PLATE
[2] = Test System: AMES SALMONELLA TYPHIMURIUM, Strain/Indicator: TA98, Metabolic Activation: RAT, LIVER, S-9, AROCLOR 1254, Method: STANDARD PLATE
[3] = Test System: AMES SALMONELLA TYPHIMURIUM, Strain/Indicator: TA100, Metabolic Activation: NONE, Method: STANDARD PLATE
[4] = Test System: AMES SALMONELLA TYPHIMURIUM, Strain/Indicator: TA100, Metabolic Activation: RAT, LIVER, S-9, AROCLOR 1254, Method: STANDARD PLATE
[5] = Test System: AMES SALMONELLA TYPHIMURIUM, Strain/Indicator: TA1535, Metabolic Activation: NONE, Method: STANDARD PLATE
[6] = Test System: AMES SALMONELLA TYPHIMURIUM, Strain/Indicator: TA1535, Metabolic Activation: RAT, LIVER, S-9, AROCLOR 1254, Method: STANDARD PLATE
[7] = Test System: AMES SALMONELLA TYPHIMURIUM, Strain/Indicator: TA1537, Metabolic Activation: NONE, Method: STANDARD PLATE
[8] = Test System: AMES SALMONELLA TYPHIMURIUM, Strain/Indicator: TA1537, Metabolic Activation: RAT, LIVER, S-9, AROCLOR 1254, Method: STANDARD PLATE

For `O=c1ccc2ccccc2o1`, the mutagenic call (End Point: IN VITRO CHROMOSOMAL ABERRATIONS, Test System: CHINESE HAMSTER OVARY CELLS, Metabolic Activation: NONE) was “inactive; negative”, the mutagenic call (End Point: IN VITRO CHROMOSOMAL ABERRATIONS, Test System: CHINESE HAMSTER OVARY CELLS, Metabolic Activation: RAT, LIVER, S-9, AROCLOR 1254) was “active; positive” and the mutagenic call (End Point: IN VIVO MICRONUCLEUS, Test System: BONE MARROW CELLS, Species: MOUSE, Strain/Sex: SWISS/MALE, FEMALE, Route: GAVAGE) was “inactive; negative”. For the same compound, the mutagenic call (Test System: AMES SALMONELLA TYPHIMURIUM, Strain/Indicator: TA98, Metabolic Activation: HAMSTER, LIVER, S-9, AROCLOR 1254 (10%), Method: PREINCUBATION) was “inactive; negative”, the mutagenic call (Test System: AMES SALMONELLA TYPHIMURIUM, Strain/Indicator: TA98, Metabolic Activation: NONE, Method: FLUCTUATION (MICROTITER)) was “inactive; negative” and the mutagenic call (Test System: AMES SALMONELLA TYPHIMURIUM, Strain/Indicator: TA98, Metabolic Activation: NONE, Method: PREINCUBATION) was “inactive; negative”. The mutagenic call (Test System: AMES SALMONELLA TYPHIMURIUM, Strain/Indicator: TA98, Metabolic Activation: RAT LIVER S-9, AROCLOR 1254, Method: FLUCTUATION (MICROTITER)) was “inactive; negative”, the mutagenic call (Test System: AMES SALMONELLA TYPHIMURIUM, Strain/Indicator: TA98, Metabolic Activation: RAT, LIVER, S-9, AROCLOR 1254 (10%), Method: PREINCUBATION) was “inactive; negative” and the mutagenic call (Test System: AMES SALMONELLA TYPHIMURIUM, Strain/Indicator: TA100, Metabolic Activation: HAMSTER, LIVER, S-9, AROCLOR 1254 (10%), Method: PREINCUBATION) was “active; positive”. The mutagenic call (Test System: AMES SALMONELLA TYPHIMURIUM, Strain/Indicator: TA100, Metabolic Activation: NONE, Method: PREINCUBATION) was “inactive; negative”, the mutagenic call (Test System: AMES SALMONELLA TYPHIMURIUM, Strain/Indicator: TA1535, Metabolic Activation: HAMSTER, LIVER, S-9, AROCLOR 1254 (10%), Method: PREINCUBATION) was “inactive; negative” and the mutagenic call (Test System: AMES SALMONELLA TYPHIMURIUM, Strain/Indicator: TA1535, Metabolic Activation: NONE, Method: PREINCUBATION) was “inactive; negative”. For the same compound, the mutagenic call (Test System: AMES SALMONELLA TYPHIMURIUM, Strain/Indicator: TA1535, Metabolic Activation: RAT, LIVER, S-9, AROCLOR 1254 (10%), Method: PREINCUBATION) was “inactive; negative”, the mutagenic call (Test System: AMES SALMONELLA TYPHIMURIUM, Strain/Indicator: TA1537, Metabolic Activation: HAMSTER, LIVER, S-9, AROCLOR 1254 (10%), Method: PREINCUBATION) was “inactive; negative” and the mutagenic call (Test System: AMES SALMONELLA TYPHIMURIUM, Strain/Indicator: TA1537, Metabolic Activation: NONE, Method: FLUCTUATION (MICROTITER)) was “inactive; negative”. For the same compound, the mutagenic call (Test System: AMES SALMONELLA TYPHIMURIUM, Strain/Indicator: TA1537, Metabolic Activation: NONE, Method: PREINCUBATION) was “inactive; negative”, the mutagenic call (Test System: AMES SALMONELLA TYPHIMURIUM, Strain/Indicator: TA1537, Metabolic Activation: RAT LIVER S-9, AROCLOR 1254, Method: FLUCTUATION (MICROTITER)) was “inactive; negative” and the mutagenic call (Test System: AMES SALMONELLA TYPHIMURIUM, Strain/Indicator: TA1537, Metabolic Activation: RAT, LIVER, S-9, AROCLOR 1254 (10%), Method: PREINCUBATION) was “inactive; negative”. For the same compound, the mutagenic call (Test System: AMES SALMONELLA TYPHIMURIUM, Strain/Indicator: TA7001, Metabolic Activation: NONE, Method: FLUCTUATION (MICROTITER)) was “inactive; negative”, the mutagenic call (Test System: AMES SALMONELLA TYPHIMURIUM, Strain/Indicator: TA7001, Metabolic Activation: RAT LIVER S-9, AROCLOR 1254, Method: FLUCTUATION (MICROTITER)) was “inactive; negative” and the mutagenic call (Test System: AMES SALMONELLA TYPHIMURIUM, Strain/Indicator: TA7002, Metabolic Activation: NONE, Method: FLUCTUATION (MICROTITER)) was “inactive; negative”. The mutagenic call (Test System: AMES SALMONELLA TYPHIMURIUM, Strain/Indicator: TA7002, Metabolic Activation: RAT LIVER S-9, AROCLOR 1254, Method: FLUCTUATION (MICROTITER)) was “active; positive”, the mutagenic call (Test System: AMES SALMONELLA TYPHIMURIUM, Strain/Indicator: TA7003, Metabolic Activation: NONE, Method: FLUCTUATION (MICROTITER)) was “inactive; negative” and the mutagenic call (Test System: AMES SALMONELLA TYPHIMURIUM, Strain/Indicator: TA7003, Metabolic Activation: RAT LIVER S-9, AROCLOR 1254, Method: FLUCTUATION (MICROTITER)) was “inactive; negative”. The mutagenic call (Test System: AMES SALMONELLA TYPHIMURIUM, Strain/Indicator: TA7004, Metabolic Activation: NONE, Method: FLUCTUATION (MICROTITER)) was “inactive; negative”, the mutagenic call (Test System: AMES SALMONELLA TYPHIMURIUM, Strain/Indicator: TA7004, Metabolic Activation: RAT LIVER S-9, AROCLOR 1254, Method: FLUCTUATION (MICROTITER)) was “inactive; negative” and the mutagenic call (Test System: AMES SALMONELLA TYPHIMURIUM, Strain/Indicator: TA7005, Metabolic Activation: NONE, Method: FLUCTUATION (MICROTITER)) was “inactive; negative”. For the same compound, the mutagenic call (Test System: AMES SALMONELLA TYPHIMURIUM, Strain/Indicator: TA7005, Metabolic Activation: RAT LIVER S-9, AROCLOR 1254, Method: FLUCTUATION (MICROTITER)) was “inactive; negative”, the mutagenic call (Test System: AMES SALMONELLA TYPHIMURIUM, Strain/Indicator: TA7006, Metabolic Activation: NONE, Method: FLUCTUATION (MICROTITER)) was “inactive; negative” and the mutagenic call (Test System: AMES SALMONELLA TYPHIMURIUM, Strain/Indicator: TA7006, Metabolic Activation: RAT LIVER S-9, AROCLOR 1254, Method: FLUCTUATION (MICROTITER)) was “inactive; negative”. For the same compound, the mutagenic call (Test System: UDS HUMAN HEPATOCYTES, Strain/Indicator: THY INCORP, Metabolic Activation: NONE, Method: AUTORADIOGRAPHY) was “inactive; negative”.

In the case of `NCCCC[C@H](NC(=O)[C@H](Cc1c[nH]c2ccccc12)NC(=O)[C@@H](N)CCCCN)C(=O)O` (H-Lys-Trp-Lys-OH), the mutagenic call [1] is reported as “inactive; negative”, the mutagenic call [2] is reported as “inactive; negative” and the mutagenic call [3] is reported as “inactive; negative”. For the same compound, the mutagenic call [4] was “inactive; negative”, the mutagenic call [5] was “inactive; negative” and the mutagenic call [6] was “inactive; negative”. For the same compound, the mutagenic call [7] was “inactive; negative” and the mutagenic call [8] was “inactive; negative”.

For `ICI`, the mutagenic call (Test System: AMES SALMONELLA TYPHIMURIUM, Strain/Indicator: TA102, Metabolic Activation: NONE, Method: STANDARD PLATE) was “inactive; negative”, the mutagenic call (Test System: AMES SALMONELLA TYPHIMURIUM, Strain/Indicator: TA2638, Metabolic Activation: NONE, Method: STANDARD PLATE) was “inactive; negative” and the mutagenic call (Test System: E. COLI, Strain/Indicator: WP2 (PKM101), Metabolic Activation: NONE, Method: STANDARD PLATE) was “inactive; negative”. For the same compound, the mutagenic call (Test System: E. COLI, Strain/Indicator: WP2 UVRA (PKM101), Metabolic Activation: NONE, Method: STANDARD PLATE) was “active; positive”.

`O=C(CCl)c1ccc(Cl)cc1Cl` was tested, and the mutagenic call (Test System: AMES SALMONELLA TYPHIMURIUM, Strain/Indicator: TA98, Metabolic Activation: HAMSTER, LIVER, S-9, AROCLOR 1254, Method: STANDARD PLATE) was “inactive; negative”, the mutagenic call [1] was “inactive; negative” and the mutagenic call [2] was “inactive; negative”. For the same compound, the mutagenic call (Test System: AMES SALMONELLA TYPHIMURIUM, Strain/Indicator: TA100, Metabolic Activation: HAMSTER, LIVER, S-9, AROCLOR 1254, Method: STANDARD PLATE) was “inactive; negative”, the mutagenic call [3] was “inactive; negative” and the mutagenic call [4] was “inactive; negative”. The mutagenic call (Test System: AMES SALMONELLA TYPHIMURIUM, Strain/Indicator: TA1535, Metabolic Activation: HAMSTER, LIVER, S-9, AROCLOR 1254, Method: STANDARD PLATE) was “inactive; negative”, the mutagenic call [5] was “inactive; negative” and the mutagenic call [6] was “inactive; negative”. For the same compound, the mutagenic call (Test System: AMES SALMONELLA TYPHIMURIUM, Strain/Indicator: TA1537, Metabolic Activation: HAMSTER, LIVER, S-9, AROCLOR 1254, Method: STANDARD PLATE) was “inactive; negative”, the mutagenic call [7] was “inactive; negative” and the mutagenic call [8] was “inactive; negative”. For the same compound, the mutagenic call (Test System: MOUSE LYMPHOMA, Strain/Indicator: L5178Y (TK+/TK-), Metabolic Activation: NONE, Method: SUSPENSION/PLATE) was “inactive; negative. reevaluation of results: negative” and the mutagenic call (Test System: MOUSE LYMPHOMA, Strain/Indicator: L5178Y (TK+/TK-), Metabolic Activation: RAT, LIVER, S-9, AROCLOR 1254, Method: SUSPENSION/PLATE) was “inactive; negative. reevaluation of results: negative”.

`Cc1ncc([N+](=O)[O-])n1CC(O)CCl` (stereo not drawn) was tested, and the mutagenic call (End Point: IN VITRO CHROMOSOMAL ABERRATIONS, Test System: HUMAN LYMPHOCYTES, Metabolic Activation: NONE) was “active; positive (structural changes)”.
